# Measured values taken from patent US9689021B2, “Method for measuring beta-lactam antibiotics” (priority 2011, dated 2017).
# Assays:
# [1] = molecular target: P99 class C beta-lactamase (Enterobacter cloacae, UniProt P05364); assay: BLAC1 method, nitrocefin (CPR) rate with P99 (Example 7); format: biochemical
# Description: (§1) The dilution buffer for the enzymes, CPR, standards and samples was 50 mM PBS buffer, pH 7.0.
# (§2) The stock solution of CPR was 200 μM. Standards solution of ampicillin and cefuroxime were prepared at 100, 75, 50, 30, 15, 5, 1 and 0 mg/L.
# In the method 1 (BLAC1), 10 μl of 50-fold diluted sample, 100 μl of CPR and 100 μl of enzyme P99 were mixed. The reaction kinetics was determined by measuring the absorbance at 482 nm as a function of time. Enzyme activity v0 max was adjusted at +/−0.33 ΔAbs482/min.
# [2] = molecular target: class C beta-lactamase of Escherichia coli K12 (Escherichia coli, UniProt P00811); conditions: cited from earlier work
# Chain of class C beta-lactamase of Escherichia coli K12 (P00811 20-377): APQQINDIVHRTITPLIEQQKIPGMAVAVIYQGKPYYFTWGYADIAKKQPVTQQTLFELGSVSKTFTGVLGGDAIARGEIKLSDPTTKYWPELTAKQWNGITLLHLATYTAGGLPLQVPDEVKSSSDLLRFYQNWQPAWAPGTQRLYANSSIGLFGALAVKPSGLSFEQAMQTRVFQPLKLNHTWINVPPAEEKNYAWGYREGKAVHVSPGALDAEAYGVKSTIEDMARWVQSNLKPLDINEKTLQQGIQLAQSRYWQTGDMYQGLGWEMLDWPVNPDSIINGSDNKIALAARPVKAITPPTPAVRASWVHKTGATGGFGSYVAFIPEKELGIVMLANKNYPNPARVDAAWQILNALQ
# [3] = tested on: Oxa-29 class D beta-lactamase; assay: BLAC2 method, nitrocefin (CPR) rate with Oxa-29; format: biochemical
# Description: as §1, §2
# In the method 2 (BLAC2), 99 μl of sample, 99 μl of CPR and 22 μl of enzyme Oxa-29 were mixed. The reaction kinetics was determined by measuring the absorbance at 482 nm as a function of time. Enzyme activity v0 max was adjusted at +/−0.2 ΔAbs482/min.
# [4] = molecular target: class C beta-lactamase of Enterobacter cloacae P99 (Enterobacter cloacae, UniProt P05364); conditions: cited from earlier work
# Chain of class C beta-lactamase of Enterobacter cloacae P99 (P05364 21-381): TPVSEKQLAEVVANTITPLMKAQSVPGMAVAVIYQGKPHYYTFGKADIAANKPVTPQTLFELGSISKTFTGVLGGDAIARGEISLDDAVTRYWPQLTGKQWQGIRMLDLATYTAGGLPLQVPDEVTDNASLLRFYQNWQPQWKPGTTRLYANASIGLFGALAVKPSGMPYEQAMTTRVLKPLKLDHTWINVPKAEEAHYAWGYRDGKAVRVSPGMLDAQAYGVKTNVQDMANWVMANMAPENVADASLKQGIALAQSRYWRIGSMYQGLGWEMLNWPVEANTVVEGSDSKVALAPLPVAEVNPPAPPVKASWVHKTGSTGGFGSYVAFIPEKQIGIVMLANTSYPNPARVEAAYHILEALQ
# [5] = molecular target: class C beta-lactamase of Pseudomonas aeruginosa (Pseudomonas aeruginosa, UniProt P24735); conditions: Pseudomonas aeruginosa, cited from earlier work
# Chain of class C beta-lactamase of Pseudomonas aeruginosa (P24735 27-397): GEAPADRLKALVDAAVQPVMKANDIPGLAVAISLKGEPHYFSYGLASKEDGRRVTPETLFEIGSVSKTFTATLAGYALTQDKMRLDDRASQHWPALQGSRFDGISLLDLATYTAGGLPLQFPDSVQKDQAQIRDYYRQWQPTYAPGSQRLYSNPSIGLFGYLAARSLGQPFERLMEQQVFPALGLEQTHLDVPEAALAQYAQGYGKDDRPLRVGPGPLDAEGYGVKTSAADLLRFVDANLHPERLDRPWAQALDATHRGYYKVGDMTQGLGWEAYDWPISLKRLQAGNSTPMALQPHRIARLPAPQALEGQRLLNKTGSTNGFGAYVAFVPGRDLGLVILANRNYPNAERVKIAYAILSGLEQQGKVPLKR
# [6] = molecular target: class C beta-lactamase of Citrobacter freundii (Citrobacter freundii, UniProt P05193); conditions: cited from earlier work
# Chain of class C beta-lactamase of Citrobacter freundii (P05193 21-381): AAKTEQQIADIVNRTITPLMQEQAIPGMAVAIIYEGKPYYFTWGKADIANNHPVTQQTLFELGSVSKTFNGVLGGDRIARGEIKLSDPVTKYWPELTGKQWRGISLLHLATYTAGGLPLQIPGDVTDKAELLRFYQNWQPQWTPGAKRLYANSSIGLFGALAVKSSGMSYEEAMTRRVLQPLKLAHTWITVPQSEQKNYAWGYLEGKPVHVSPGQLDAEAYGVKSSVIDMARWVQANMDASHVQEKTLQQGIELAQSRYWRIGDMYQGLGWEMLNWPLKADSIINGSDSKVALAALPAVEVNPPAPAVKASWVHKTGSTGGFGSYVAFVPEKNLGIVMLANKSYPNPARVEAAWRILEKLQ
# [7] = molecular target: class A beta-lactamase (penicillinase) TEM-1 (Escherichia coli, UniProt P62593); assay: BLAC2 method, nitrocefin (CPR) rate with Tem-1; format: biochemical; conditions: even at 100 mg/L, fixed CPR
# Chain of class A beta-lactamase (penicillinase) TEM-1 (P62593 24-286 limits assumed): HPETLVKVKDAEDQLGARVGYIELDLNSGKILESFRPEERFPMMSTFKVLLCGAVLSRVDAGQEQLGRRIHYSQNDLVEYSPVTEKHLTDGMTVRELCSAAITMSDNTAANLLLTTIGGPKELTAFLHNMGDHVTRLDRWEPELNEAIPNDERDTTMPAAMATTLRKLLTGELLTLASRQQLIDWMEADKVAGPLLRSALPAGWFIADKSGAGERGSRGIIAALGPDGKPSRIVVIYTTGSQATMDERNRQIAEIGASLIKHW
# Description: In order to determine the concentration of ampicillin in a solution, two beta-lactamases were compared, in particular the class A beta-lactamase (penicillinase) TEM-1 (UniProt: C514X2_ECOLX) and the class C beta-lactamase of Enterobacter cloacae P99 described in Example 1.
# The dilution buffer for the enzymes, nitrocefin (CPR), standards and samples was 50 mM PBS buffer, pH 7. The stock solution of CPR was 200 μM. The standard solution of ampicillin was prepared at concentrations of 100, 75, 50, 30, 15, 5, 1 and 0 mg/L.
# In the method 2 (BLAC2), 99 μl of sample, 99 μl of CPR and 22 μl of enzyme, i.e. Tem-1 or P99, were mixed. The enzyme activity (v0 max) was adjusted at +/−0.2 ΔAbs482/min.
# [8] = molecular target: class C beta-lactamase of Serratia marcescens (Serratia marcescens, UniProt P18539); conditions: Serratia marcescens, cited from earlier work
# Chain of class C beta-lactamase of Serratia marcescens (P18539 22-376): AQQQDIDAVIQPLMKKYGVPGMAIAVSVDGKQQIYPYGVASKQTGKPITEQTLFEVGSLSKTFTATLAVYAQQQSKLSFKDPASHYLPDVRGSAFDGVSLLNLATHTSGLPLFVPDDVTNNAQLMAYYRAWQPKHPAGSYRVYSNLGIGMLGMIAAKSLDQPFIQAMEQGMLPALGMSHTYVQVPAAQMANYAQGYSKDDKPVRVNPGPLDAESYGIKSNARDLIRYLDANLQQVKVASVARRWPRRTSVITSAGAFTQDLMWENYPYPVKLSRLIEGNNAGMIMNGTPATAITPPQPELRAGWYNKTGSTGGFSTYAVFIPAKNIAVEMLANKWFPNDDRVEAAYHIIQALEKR
# [9] = tested on: class C beta-lactamase of Enterobacter cloacae 908R; conditions: cited from earlier work
# Chain of P99 class C beta-lactamase (P05364 21-381): as the sequence (P05364 21-381) above
structure (smiles),measurement,setting,value
CC1(C)S[C@@H]2[C@H](NC(=O)[C@H](N)c3ccccc3)C(=O)N2[C@H]1C(=O)O [Ampicillin],rate of P99 class C beta-lactamase,"[1]; BLAC1, 1 mg/L",0.3221 ΔAbs482/min
same,"residual rate minus 1, (vomax/v0)−1, P99","[1]; BLAC1, 1 mg/L",0.004
same,rate of P99 class C beta-lactamase,"[1]; BLAC1, 5 mg/L",0.3207 ΔAbs482/min
same,"residual rate minus 1, (vomax/v0)−1, P99","[1]; BLAC1, 5 mg/L",0.008
same,rate of P99 class C beta-lactamase,"[1]; BLAC1, 15 mg/L",0.3164 ΔAbs482/min
same,"residual rate minus 1, (vomax/v0)−1, P99","[1]; BLAC1, 15 mg/L",0.022
same,rate of P99 class C beta-lactamase,"[1]; BLAC1, 30 mg/L",0.3114 ΔAbs482/min
same,"residual rate minus 1, (vomax/v0)−1, P99","[1]; BLAC1, 30 mg/L",0.038
same,rate of P99 class C beta-lactamase,"[1]; BLAC1, 50 mg/L",0.3008 ΔAbs482/min
same,"residual rate minus 1, (vomax/v0)−1, P99","[1]; BLAC1, 50 mg/L",0.075
same,rate of P99 class C beta-lactamase,"[1]; BLAC1, 75 mg/L",0.2909 ΔAbs482/min
same,"residual rate minus 1, (vomax/v0)−1, P99","[1]; BLAC1, 75 mg/L",0.111
same,rate of P99 class C beta-lactamase,"[1]; BLAC1, 100 mg/L",0.2806 ΔAbs482/min
same,"residual rate minus 1, (vomax/v0)−1, P99","[1]; BLAC1, 100 mg/L",0.152
same,"linear regression coefficient a (Y=aX+b), P99","[1]; BLAC1, X in mg/L",0.0015
same,"linear regression coefficient b (Y=aX+b), P99","[1]; BLAC1, X in mg/L",0.0000
same,Km,[2],3.5 µM
same,kcat,[2],4.2 s⁻¹
same,rate of Oxa-29 Class D beta-lactamase,"[3]; BLAC2, 1 mg/L",0.1831 ΔAbs482/min
same,"residual rate minus 1, (vomax/v0)−1, Oxa-29","[3]; BLAC2, 1 mg/L",0.048
same,rate of Oxa-29 Class D beta-lactamase,"[3]; BLAC2, 5 mg/L",0.1680 ΔAbs482/min
same,"residual rate minus 1, (vomax/v0)−1, Oxa-29","[3]; BLAC2, 5 mg/L",0.142
same,rate of Oxa-29 Class D beta-lactamase,"[3]; BLAC2, 15 mg/L",0.1532 ΔAbs482/min
same,"residual rate minus 1, (vomax/v0)−1, Oxa-29","[3]; BLAC2, 15 mg/L",0.253
same,rate of Oxa-29 Class D beta-lactamase,"[3]; BLAC2, 30 mg/L",0.1292 ΔAbs482/min
same,"residual rate minus 1, (vomax/v0)−1, Oxa-29","[3]; BLAC2, 30 mg/L",0.485
same,rate of Oxa-29 Class D beta-lactamase,"[3]; BLAC2, 50 mg/L",0.1056 ΔAbs482/min
same,"residual rate minus 1, (vomax/v0)−1, Oxa-29","[3]; BLAC2, 50 mg/L",0.817
same,rate of Oxa-29 Class D beta-lactamase,"[3]; BLAC2, 75 mg/L",0.0869 ΔAbs482/min
same,"residual rate minus 1, (vomax/v0)−1, Oxa-29","[3]; BLAC2, 75 mg/L",1.208
same,rate of Oxa-29 Class D beta-lactamase,"[3]; BLAC2, 100 mg/L",0.0730 ΔAbs482/min
same,"residual rate minus 1, (vomax/v0)−1, Oxa-29","[3]; BLAC2, 100 mg/L",1.629
same,"linear regression coefficient a (Y=aX+b), Oxa-29","[3]; BLAC2, X in mg/L",0.0159
same,"linear regression coefficient b (Y=aX+b), Oxa-29","[3]; BLAC2, X in mg/L",0.0002
same,Km,[4],0.4 µM
same,kcat,[4],0.74 s⁻¹
same,kcat,[5],4.4 s⁻¹
same,Km,[5]; read-out: Km,0.5 µM
same,Km,[6],0.2 µM
same,kcat,[6],6.5 s⁻¹
same,inhibition of Tem-1 catalyzed reaction,[7],no inhibition of the reaction was observed
same,kcat,[8],0.46 s⁻¹
same,Km,[8]; read-out: Km,0.01 µM
same,Km,[9],0.4 µM
same,kcat,[9],0.53 s⁻¹
